Here are results for 12 molecules from patent US9090608B2, “Pharmaceutical composition for preventing or treating osteoporosis or obesity comprising phenyltetrazole derivative” (KOREA RESEARCH INSTITUTE OF CHEMICAL TECHNOLOGY, priority 2009, dated 2015).

The term inhibition denotes the percentage by which the read-out fell short of the control.

Holding throughout (assay type): cell-based
For one assay, the system named is RUNX2. Description: TAZ activity of stimulating RUNX2 function (6xOSE-luc reporter in 293T cells). To be noted: for Additional stimulating activity on TAZ stimulation of RUNX2: 10 μM, considered additional when value exceeds 570% of the average increase by protein TAZ; for activity at 10 µM: Homo sapiens, HEK-293T, 24 hours, 293T cells, percentage based on non-treated control cells, read-out: Activity (%): osteocalcin promoter activity. The procedure:
Introduced in 293T cells were introduced RUNX2 and TAZ expression vector together with 6×OSE-luc (osteocalcin-specific element linked to luciferase, six copies of RUNX2-binding site in the osteocalcin promoter linked to luciferase) [Hong et al., Science 2005; 309:1074-8]. This test was for an evaluation of an activity of the inventive compounds in stimulating the luciferase activity which increases when RUNX2 binds to TAZ.
After 24 hours, the cells were treated with each of the inventive compounds to a concentration of 10 μM and then further cultivated for 24 hours. The procedure of Test 2 was repeated to extract the cell protein, and then reporter gene analysis was conducted to quantify the effect of the inventive compounds on the TAZ activity in stimulating RUNX2. For comparing the transformation efficaciency, β-galactosidase expression vector (pCMVβ) was introduced to 293T cells and the β-galactosidase activity was measured for calibration.
The osteocalcin promoter activity was analyzed in percentage term based on that of non-treated cells in a control group. When the value exceeds 570% of the average increase by protein TAZ, the compound was considered to have an additional stimulating activity.

In another assay the test system is PPARγ. In words: TAZ activity of inhibiting PPARγ function (aP2-luc reporter in 293T cells). To be noted: Homo sapiens, HEK-293T, 24 h, percentage based on inhibitory effect in non-treated control cells, read-out: Increased inhibition (%) of aP2 promoter activity. The source says:
293T cells (ATCC) were placed in the wells of a 48-well plate (1×10^5 cells/well) and stabilized. Introduced to the cells were PPARγ and TAZ expression vectors together with vectors aP2-luc (adipose fatty acid binding protein 2 promoter linked to luciferase) and pCMVβ Hong et al., Science 2005; 309:1074-8]. For observing the effect on transcription activation of the target gene by the PPARγ or TAZ protein expression, aP2-luc reporter gene was also introduced into the cells. For calibration of the introduction efficiency in cells, vector pCMVβ was introduced in cells in same amounts and the β-galactosidase activity was measured to calibrate the luciferase activity.
After 24 hours, the cells were treated with each of the inventive compounds to a concentration of 10 μM and then further cultivated for 24 hours. Proteins of the resulting cells were extracted with a lysis solution comprising NP-40, and thus luciferase activity was measured (Promega, Sunnyvale, Calif., USA).
Increased inhibitory effect on the aP2 promoter activity was analyzed and the results were calculated in percentage term based on the inhibitory effect on the aP2 promoter activity observed for the non-treated cells in a control group.

The next assay concerns the target T1, protein TAZ (Homo sapiens, UniProt Q9GZV5).
T1 construct: introducing full length TAZ cDNA synthesized by PCR method into vector pEGFP; expressed in transfected cells
Description: Stimulating TAZ protein migration toward nucleus (GFP-TAZ high-content imaging). To be noted: 0.5 h, after 30 minutes, Cos cells, percentage based on non-treated control cells, read-out: Expression (%): GFP expression of protein TAZ in the nucleus. The procedure:
Vector pEGFP-TAZ in which GFP (green fluorescence protein) is linked to protein TAZ was prepared, and nucleus specific histone protein (RFP-H2B) expression vector having introduced RFP (red fluorescence protein) therein was prepared. The vector pEGFP-TAZ was prepared by introducing full length TAZ cDNA synthesized by PCR method into vector pEGFP (Invitrogen, Carlsbad, Calif., USA) and then cloning. The expression vector RFP-H2B was prepared by introducing full length histone H2B cDNA into expression vector RFP (Clontech Laboratories, Inc., Palo Alto, Calif., USA) and then cloning.
Cos? cells (ATCC, Manassas, Va.) were distributed to each well of a 96-well plate (5×10^3 cells/well) and stabilized, and then vectors pEGFP-TAZ and RFP-H2B were introduced into the cells by employing Effectene™ (Qiagen). After 48 hours, the cells were treated with each of the inventive compounds to a concentration of 10 μM. After 30 minutes, the movement of green fluorescent color toward the cell nucleus was observed continually by employing BD Pathway™ high-content bioimager (BD bioscience). Using a quantification program (BD IPLab™ for Pathway and BD™ Image Data Explorer), GFP expression in the nucleus of RFP-expressed cells was quantified.
GFP expressions of protein TAZ in the nucleus were analyzed and calculated in percentage term based on that of non-treated cells in a control group, which are shown in Table 3.

A further assay relates to 3T3-L1 preadipocytes. Description: Differentiation of 3T3-L1 cells into adipocytes (Oil-red O staining). To be noted: for Inhibition of adipocyte differentiation (Oil-red O staining): compound added at each medium replacement, after 8 days. How it is done: 3T3-L1 preadipocytes (ATCC CL-173) were dispersed in a DMEM medium comprising 10% FBS (fatal bovine serum , and then confluently cultivated for 48 hours in a 24-well plate (3×10^4 cells/well). 2 μM rosiglitazone, 5 μg/mL insulin, and 1 μM dexamethasone were added thereto to induce adipocyte differentiation.
After 48 hours, the medium was replaced with a DMEM comprising 5 μg/mL insulin and 10% FBS (fatal bovine serum), and 48 hours later, the medium was replaced with a DMEM comprising 10% FBS. Then, the medium was replaced every 48 hours to evaluate adipocyte differentiation. The inventive compounds were each added during the replacement of the medium. After 8 days, the cells were fixed with 10% formalin, and Oil-red O staining was conducted to confirm adipocytes generated in cells.

A further assay deals with C3H10T1/2 cells. Description: Differentiation of C3H10T1/2 cells into osteoblasts (Alizarin red S staining). To be noted: 10 μM, after 20 days. How it is done:
C3H10T1/2 cells (ATCC CCL 226) were diluted in a α-MEM medium comprising 10% FBS, cultivated in a 96-well plate (1×10^4 cells/well) for 48 hours, and the medium was replaced every 48 hours to observe the osteoblast differentiation. On the initiation of differentiation, the medium was treated with 10 μM of each of the inventive compounds.
After 20 days, the cells were fixed with 70% ethanol and stained with an Alizarin red S solution to confirm increased calcium in osteocytes. In the Alizarin red staining test, the degrees of osteoblast differention can be identified by the intensity of red color.

T1 sequence (Q9GZV5 whole entry): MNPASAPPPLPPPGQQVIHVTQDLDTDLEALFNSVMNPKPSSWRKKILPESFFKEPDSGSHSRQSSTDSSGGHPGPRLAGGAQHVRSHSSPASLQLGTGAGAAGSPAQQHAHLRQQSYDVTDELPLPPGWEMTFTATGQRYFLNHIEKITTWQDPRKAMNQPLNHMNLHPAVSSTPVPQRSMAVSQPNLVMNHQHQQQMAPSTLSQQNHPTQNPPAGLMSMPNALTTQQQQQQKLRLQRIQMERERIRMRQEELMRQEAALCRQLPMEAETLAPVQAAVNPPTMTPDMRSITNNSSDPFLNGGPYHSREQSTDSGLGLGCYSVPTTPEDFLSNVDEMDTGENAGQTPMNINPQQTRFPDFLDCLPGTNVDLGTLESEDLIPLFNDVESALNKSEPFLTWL

Take `CCCCc1nc2cc(Br)c(COC(C)=O)nc2n1Cc1ccc(-c2ccccc2-c2nnn[nH]2)cc1` [X, 6-bromo-2-butyl-3-[2′-(1H-tetrazol-5-yl)biphenyl-4-ylmethyl]-3H-imidazo[4,5-b]pyridin-5-ylmethyl acetate]: in the assay with RUNX2, the “Additional stimulating activity on TAZ stimulation of RUNX2” value (“Additional stimulating activity” below) was “additional stimulating activity was observed” and the activity at 10 µM is 672%. Moreover, the inhibition at 10 µM in the assay with PPARγ is 57.5%.

With `CCCCc1nc2cc(C(O)c3ccccc3)c(C(OC)OC)nc2n1Cc1ccc(-c2ccccc2-c2nnnn2C(C)OCC)cc1` (centres unmarked) [VII, (2-butyl-5-dimethoxymethyl-3-{2′-[1-(1-ethoxyethyl)-1H-tetrazol-5-yl]biphenyl-4-ylmethyl}-3H-imidazo[4,5-b]pyridin-6-yl)phenylmethanol], the activity at 10 µM was found to be 160% at protein TAZ and 476% with RUNX2. Also, the “Inhibition of adipocyte differentiation at a higher concentration” value in the assay on 3T3-L1 preadipocytes (treating at a higher concentration) is “markedly increased inhibitory effect”. Besides, the inhibition at 10 µM in the assay on PPARγ is 46.7%.

Take `CCCCc1nc2cc(-c3ccccn3)c(C(=O)OC)nc2n1Cc1ccc(-c2ccccc2-c2nnn[nH]2)cc1` [IV, methyl 2-butyl-6-pyridin-2-yl-3-[2′-(1H-tetrazol-5-yl)biphenyl-4-ylmethyl]-3H-imidazo[4,5-b]pyridine-5-carboxylate]: the figures for the activity at 10 µM at protein TAZ and in the assay with RUNX2 were 135% and 463%, respectively. In addition, in the assay with 3T3-L1 preadipocytes, the “Inhibition of adipocyte differentiation (Oil-red O staining)” value is given as “adipocyte differentiation was inhibited”.

Take `CCCCc1nc2cc(-c3cccc[n+]3[O-])c(CF)nc2n1Cc1ccc(-c2ccccc2-c2nnn[nH]2)cc1` [VI, 2-butyl-5-fluoromethyl-6-(1-oxypyridin-2-yl)-3-[2′-(1H-tetrazol-5-yl)biphenyl-4-ylmethyl]-3H-imidazo[4,5-b]pyridine]: the values for the activity at 10 µM on protein TAZ and in the assay with RUNX2 were 132% and 483%, respectively. In the assay with PPARγ, the inhibition at 10 µM amounted to 51.3%.

For `CCCCc1nc2c(C)cc(CO)nc2n1Cc1ccc(-c2ccccc2-c2nnn[nH]2)cc1` [V, {2-butyl-7-methyl-3-[2′-(1H-tetrazol-5-yl)biphenyl-4-ylmethyl]-3H-imidazo[4,5-b]pyridin-5-yl}methanol], the activity at 10 µM turned out to be 151% at protein TAZ and 468% in the assay on RUNX2. Also, the “Stimulation of osteoblast differentiation (Alizarin red staining)” value in the assay with C3H10T1/2 cells is “osteoblast differentiation was stimulated”. Also, the inhibition at 10 µM with PPARγ was determined as 32.3%.

For the molecule `CCCCc1nc2cc(-c3cccnc3)c(C)nc2n1Cc1ccc(-c2ccccc2-c2nnn[nH]2)cc1` [III, 2-butyl-5-methyl-6-pyridin-3-yl-3-[2′-(1H-tetrazol-5-yl)biphenyl-4-ylmethyl]-3H-imidazo[4,5-b]pyridine], the activity at 10 µM is 157% on protein TAZ and 259% in the assay on RUNX2. Besides, the “Inhibition of adipocyte differentiation (Oil-red O staining)” value with 3T3-L1 preadipocytes was “adipocyte differentiation was inhibited”. The “Stimulation of osteoblast differentiation (Alizarin red staining)” value in the assay on C3H10T1/2 cells was “osteoblast differentiation was stimulated”. Besides, the inhibition at 10 µM with PPARγ was over 60%.

Turning to `CCCCc1nc2cc(C(O)c3ccccc3)c(C(OC)OC)nc2n1Cc1ccc(-c2ccccc2-c2nnn[nH]2)cc1` (centres unmarked) [VIII, {2-butyl-5-dimethoxymethyl-3-[2′-(1H-tetrazol-5-yl)biphenyl-4-ylmethyl]-3H-imidazo[4,5-b]pyridin-6-yl}phenylmethanol], in the assay on RUNX2, the “Additional stimulating activity” value is listed as “additional stimulating activity was observed” and the activity at 10 µM came to 688%. In addition, the inhibition at 10 µM in the assay with PPARγ is over 60%.

`CCc1nc2c(C)cc(CO)nc2n1Cc1ccc(-c2ccccc2-c2nnn[nH]2)cc1` [II, {2-ethyl-7-methyl-3-[2′-(1H-tetrazol-5-yl)biphenyl-4-ylmethyl]-3H-imidazo [4,5-b]pyridin-5-yl}methanol]: the activity at 10 µM at protein TAZ worked out at 130%; in the assay on RUNX2, 473%. In the assay on PPARγ, the inhibition at 10 µM is 43.2%.

Regarding `CCCCc1nc2cc(C(=O)OC)c(/C=C/c3ccccc3)cc2n1Cc1ccc(-c2ccccc2-c2nnn[nH]2)cc1` [XII, methyl 2-butyl-6-styryl-1-[2′-(1H-tetrazol-5-yl)biphenyl-4-ylmethyl]-1H-benzimidazol-5-carboxylate], the activity at 10 µM came to 149% at protein TAZ and 296% with RUNX2. The “Inhibition of adipocyte differentiation (Oil-red O staining)” value in the assay with 3T3-L1 preadipocytes is given as “adipocyte differentiation was inhibited”. Besides, in the assay on PPARγ, the inhibition at 10 µM is over 60%.

`CCCCc1nc2c(C)c(-c3ccccc3)c(COCSC)nc2n1Cc1ccc(-c2ccccc2-c2nnn[nH]2)cc1` [XI, 2-butyl-7-methyl-5-((methylsulfanylmethoxy)methyl)-6-phenyl-3-[2′-(1H-tetrazol-5-yl)biphenyl-4-ylmethyl]-3H-imidazo[4,5-b]pyridine]: the activity at 10 µM on protein TAZ was determined as 134%. In the assay with RUNX2, the “Additional stimulating activity” value is given as “additional stimulating activity was observed” and the activity at 10 µM was 754%.

As to `CCCCc1nc2cc(/C=C/c3ccccc3)c(C(=O)OC)cc2n1Cc1ccc(-c2ccccc2-c2nnn[nH]2)cc1` [XIII, methyl 2-butyl-5-styryl-1-[2′-(1H-tetrazol-5-yl)biphenyl-4-ylmethyl]-1H-benzimidazol-6-carboxylate], the activity at 10 µM in the assay on RUNX2 is 569%. In addition, the inhibition at 10 µM in the assay on PPARγ was 39.9%.

Take `CCCCc1nc2cc(Br)c(COC(C)=O)nc2n1Cc1ccc(-c2ccccc2-c2nnnn2C(C)OCC)cc1` (centres unmarked) [IX, 6-bromo-2-butyl-3-{2′-[1-(1-ethoxyethyl)-1H-tetrazol-5-yl]biphenyl-4-ylmethyl}-3H-imidazo[4,5-b]pyridin-5-ylmethyl acetate]: the activity at 10 µM on protein TAZ came out at 147%. For the same molecule, in the assay on RUNX2, the “Additional stimulating activity” value is “additional stimulating activity was observed” and the activity at 10 µM was determined as 676%. In the assay with PPARγ, the inhibition at 10 µM came to 22.7%.
